Test [1] concerns the target GLP-1R (Homo sapiens, UniProt P43220, W214A). Kind of test: Whole-cell binding assay, competition with 125I-GLP-1(7-36)NH2. Conditions: GLP-1R W214A, CHO-K1. Details: Flag; expressed in transfected cells. The procedure:
(§1) Human embryonic kidney 293 cells containing SV40 large T-antigen (HEK293T) were cultured in DMEM (Gibco) supplemented with 10% (v/v) fetal bovine serum (FBS, Gibco), 1 mM sodium pyruvate (Gibco) and 100 units/mL penicillin and 100 μg/mL streptomycin at 37 °C in 5% CO2. Chinese hamster ovary (CHO-K1) cells were cultured in F-12 (Gibco) containing 10% FBS, 100 units/mL penicillin and 100 μg/mL streptomycin at 37 °C in 5% CO2. For cAMP and receptor expression assays, HEK293T cells were seeded into 6-well cell culture plates at a density of 7 × 10^5 cells per well. After overnight incubation, cells were transfected with GIPR, GLP-1R or GCGR construct using Lipofectamine 2000 or Lipofectamine 3000 transfection reagent (Invitrogen). For whole-cell binding assay, CHO-K1 cells were seeded into 96-well fibronectin-treated cell culture plates at a density of 3 × 10^4 cells per well. After overnight incubation, cells were transfected with GIPR, GLP-1R or GCGR construct using Lipofectamine 2000 transfection reagent (Invitrogen). Following 24 h culturing, the transfected cells were ready for use.
(§2) For GLP-1R and GCGR, CHO-K1 cells (30,000 cells/well) were seeded into Isoplate-96 plates and incubated for 24 h at 37 °C in 5% CO2. The WT or mutant constructs were transiently transfected using Lipofectamine 2000 transfection reagent as previous described. They were then washed twice using F-12 with 0.1% BSA or 0.1% casein, 33 mM HEPES, and incubated for 2 h at 37 °C. […] Cells were washed three times with ice-cold PBS and lysed in PBS with 1% Triton X-100, 20 mM Tris-HCl. After addition of scintillation cocktail (PerkinElmer), radioactivity (CPM) was counted on a MicroBeta^2 microplate counter (PerkinElmer). Data were normalized to the WT response and analyzed using three-parameter logistic equation.

Test [2] has as its target GLP-1R (Homo sapiens, UniProt P43220, Y148A). Described as above. Details: Flag; expressed in transfected cells. The conditions noted are these: GLP-1R Y148A, CHO-K1. The method, then:
as §1, §2

The target of test [3] is T1, GIPR (Homo sapiens, UniProt P48546, T345F).
T1 sequence (P48546 22-466 T345F): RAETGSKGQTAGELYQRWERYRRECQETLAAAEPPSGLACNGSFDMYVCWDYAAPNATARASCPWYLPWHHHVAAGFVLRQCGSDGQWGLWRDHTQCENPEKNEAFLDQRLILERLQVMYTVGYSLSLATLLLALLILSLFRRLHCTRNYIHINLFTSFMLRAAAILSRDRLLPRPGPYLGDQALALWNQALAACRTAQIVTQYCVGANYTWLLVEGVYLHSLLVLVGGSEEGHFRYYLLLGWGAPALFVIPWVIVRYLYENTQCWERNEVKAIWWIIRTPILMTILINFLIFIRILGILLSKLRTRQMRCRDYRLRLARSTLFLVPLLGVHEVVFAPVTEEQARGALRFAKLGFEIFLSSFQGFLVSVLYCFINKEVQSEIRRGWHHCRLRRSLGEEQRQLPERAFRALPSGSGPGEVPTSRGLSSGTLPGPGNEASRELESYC
Kind of test: Whole-cell binding assay, competition with 125I-GIP1-42. Details: acylated tirzepatide to the full-length or modified; Flag; expressed in transfected cells. The conditions noted are these: GIPR T345F; CHO-K1; read-out: binding pIC50 (converted). Summed up:
(§3)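 Transiently transfected CHO-K1 cells expressing WT or mutant GIPR were washed in F-12 with 0.1% BSA or 0.1% casein and 33 mM HEPES, then incubated 2 h at 37 °C. After ice-cold PBS washes, cells were lysed and bound radioactivity counted (CPM).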

Test [4] concerns the target T2, GIPR (Homo sapiens, UniProt P48546, Y36A).
T2 sequence (P48546 22-466 Y36A): T1 sequence (P48546 22-466 T345F) with Y15A, F324T
The description is as above. The conditions noted are these: GIPR Y36A, CHO-K1; for IC50: read-out: binding pIC50 (converted). Details: acylated tirzepatide to the full-length or modified; Flag; expressed in transfected cells. Summed up: as §3

[5] abbreviates: read-out: binding pIC50 (converted).

Where a chain is given by its changes, count along the chain named.

Two compounds from paper PMC8881610 (Nature Communications, 2022) can be followed below.

GLP-1R (Homo sapiens, UniProt P43220, Y148A), sequence (P43220 24-463 Y148A): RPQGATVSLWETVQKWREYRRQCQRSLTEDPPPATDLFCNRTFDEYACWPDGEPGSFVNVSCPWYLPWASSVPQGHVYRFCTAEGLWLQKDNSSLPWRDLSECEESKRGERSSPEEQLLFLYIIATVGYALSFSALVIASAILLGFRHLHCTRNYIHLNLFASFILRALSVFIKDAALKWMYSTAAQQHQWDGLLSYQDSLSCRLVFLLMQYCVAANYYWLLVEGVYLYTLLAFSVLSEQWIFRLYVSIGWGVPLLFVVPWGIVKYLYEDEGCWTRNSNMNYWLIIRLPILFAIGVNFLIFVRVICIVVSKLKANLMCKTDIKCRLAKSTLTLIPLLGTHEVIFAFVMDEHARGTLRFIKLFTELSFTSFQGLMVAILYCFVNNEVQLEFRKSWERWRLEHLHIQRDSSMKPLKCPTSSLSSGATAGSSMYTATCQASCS
GLP-1R (Homo sapiens, UniProt P43220, W214A), sequence (P43220 24-463 W214A): as the sequence (P43220 24-463 Y148A) above, with A125Y, W191A counted along it

Consider `CCCCCCCCCCCCCCCC(=O)N[C@@H](CCC(=O)NCCCC[C@H](NC(=O)[C@H](CC(=O)O)NC(=O)[C@H](CO)NC(=O)[C@@H](NC(=O)[C@H](Cc1ccccc1)NC(=O)[C@@H](NC(=O)CNC(=O)[C@H](CCC(N)=O)NC(=O)C(C)(C)NC(=O)[C@@H](N)Cc1c[nH]cn1)[C@@H](C)O)[C@@H](C)O)C(=O)N[C@@H](CO)C(=O)N[C@@H](CCCCN)C(=O)N[C@@H](Cc1ccc(O)cc1)C(=O)N[C@@H](CC(C)C)C(=O)N[C@@H](CC(=O)O)C(=O)N[C@@H](CCC(=O)O)C(=O)N[C@@H](CCCNC(=N)N)C(=O)N[C@@H](C)C(=O)N[C@@H](C)C(=O)N[C@@H](CCC(N)=O)C(=O)N[C@@H](CC(=O)O)C(=O)N[C@@H](Cc1ccccc1)C(=O)N[C@H](C(=O)N[C@@H](CCC(N)=O)C(=O)N[C@@H](Cc1c[nH]c2ccccc12)C(=O)N[C@@H](CC(C)C)C(=O)N[C@@H](CC(C)C)C(=O)N[C@@H](CC(=O)O)C(=O)NCC(=O)NCC(=O)N1CCC[C@H]1C(=O)N[C@@H](CO)C(=O)N[C@@H](CO)C(=O)NCC(=O)N[C@@H](C)C(=O)N1CCC[C@H]1C(=O)N1CCC[C@H]1C(=O)N1CCC[C@H]1C(=O)N[C@@H](CO)C(N)=O)C(C)C)C(=O)O` [Peptide 20], for which the “binding Span” value at GLP-1R [1] is given as 10.25 ± 1.71 % WT; on GLP-1R [2] it was 8.73 ± 2.65 % WT; on GIPR [4], 48.19 ± 2.73 % WT. For the same compound, the IC50 on GLP-1R [1] (setting [5]) is 17 nM; at GLP-1R [2] (setting [5]), 15.5 nM; at GIPR [3] it was 24 nM; at GIPR [4], 16.2 nM.
As for `CC[C@H](C)[C@H](NC(=O)[C@H](CC(C)C)NC(=O)[C@H](Cc1c[nH]c2ccccc12)NC(=O)[C@H](CCC(N)=O)NC(=O)[C@@H](NC(=O)[C@H](Cc1ccccc1)NC(=O)[C@H](C)NC(=O)[C@H](CCCCNC(=O)COCCOCCNC(=O)COCCOCCNC(=O)CC[C@H](NC(=O)CCCCCCCCCCCCCCCCCCC(=O)O)C(=O)O)NC(=O)[C@H](CCC(N)=O)NC(=O)[C@H](C)NC(=O)[C@@H](NC(=O)[C@H](CCCCN)NC(=O)[C@H](CC(=O)O)NC(=O)[C@H](CC(C)C)NC(=O)C(C)(C)NC(=O)[C@@H](NC(=O)[C@H](CO)NC(=O)[C@H](Cc1ccc(O)cc1)NC(=O)[C@H](CC(=O)O)NC(=O)[C@H](CO)NC(=O)[C@@H](NC(=O)[C@H](Cc1ccccc1)NC(=O)[C@@H](NC(=O)CNC(=O)[C@H](CCC(=O)O)NC(=O)C(C)(C)NC(=O)[C@@H](N)Cc1ccc(O)cc1)[C@@H](C)O)[C@@H](C)O)[C@@H](C)CC)[C@@H](C)CC)C(C)C)C(=O)N[C@@H](C)C(=O)NCC(=O)NCC(=O)N1CCC[C@H]1C(=O)N[C@@H](CO)C(=O)N[C@@H](CO)C(=O)NCC(=O)N[C@@H](C)C(=O)N1CCC[C@H]1C(=O)N1CCC[C@H]1C(=O)N1CCC[C@H]1C(=O)N[C@@H](CO)C(N)=O` [Tirzepatide], the “binding Span” value at GLP-1R [1] amounted to 11.88 ± 1.32 % WT; on GLP-1R [2], 12.31 ± 2.51 % WT; on GIPR [4] it was 40.56 ± 12.64 % WT. The IC50 on GIPR [3] is 129 nM; at GIPR [4] it was 275 nM.
